Test results reported in PubChem BioAssay AID602211 (Sanford-Burnham Center for Chemical Genomics, 2012).
Activity calls are given as the source filed them.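 How the source made its calls: active means mean IC50 at or below 10 µM; inactive means the rest.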

Test system: H9c2 cardiomyocytes, H2O2 protection, ATPLite viability, 2 h
Test: protection of H9c2 cardiomyocytes from H2O2 death, dose response, cell-based, ATPLite luminescence, set 2 (AID 602211);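 further: potency is for protection so actives keep ATP signal up against peroxide killing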

CC(C)C(=O)N1CCN(c2ccc(NC(=O)COc3ccccc3[N+](=O)[O-])cc2)CC1 showed an IC50 of 1.07 µM.
With COc1cc(OC)cc(C(=O)Nc2ccc(-c3nc4ccccc4o3)cc2)c1 the IC50 was > 79 µM (inactive).
For COC(=O)c1ccc(C(=O)OC)c(NC(=O)COC(=O)C23CC4CC(CC(O)(C4)C2)C3)c1, the IC50 was 3.4 µM.
For COc1ccc2c(c1OC)C(=O)N1c3ccccc3C(=O)N(c3ccccc3)C21 (stereo not drawn), the IC50 was 6.9 µM.
CCOC(=O)C1CCN(C(c2cc3c(C)ccc(C)c3[nH]c2=O)c2nnnn2C2CCCCC2)CC1 (stereo not drawn) was tested, and the IC50 was > 79 µM (inactive).
For COc1cc(/C=C/C(=O)Nc2ccc3nc4n(c(=O)c3c2)CCCC4)cc(OC)c1OC, the IC50 was 13.3 µM (inactive).
CCOc1ccccc1N1CC(O)=C(c2nc3ccccc3s2)C1=N was tested, and the IC50 was > 79 µM (inactive).
With O=C(COC(=O)c1cc(-c2cccnc2)nc2ccccc12)Nc1ccc(F)cc1F the IC50 was 17.8 µM (inactive).
In the case of COCCNC(=O)COC(=O)c1ccc(OCC(=O)Nc2ccccc2OC)c(OC)c1, the IC50 is reported as 20.4 µM (inactive).
In the case of Cn1nc(C(=O)Nc2nc(-c3ccccn3)cs2)c2ccccc2c1=O, the IC50 is reported as 6.13 µM.
Molecule O=C(Nc1nc(-c2ccccn2)cs1)c1ccc(-c2ccccc2F)o1 has an IC50 of 3 µM.
In the case of COc1ccc(-c2cc(NC=O)c3ncc(-c4ccccc4)n3c2)cc1OC, the IC50 is reported as > 79 µM (inactive).
O=C(c1ccco1)N1CCN(C(=O)c2cc(-c3ccncc3)nc3ccc(Br)cc23)CC1 was tested, and the IC50 was 13.8 µM (inactive).
Cc1ccccc1C(C(=O)NCc1ccccc1)N(Cc1ccco1)C(=O)c1ccccn1 (stereo not drawn) was tested, and the IC50 was > 79 µM (inactive).
Work on CCOc1ccc2nc(NC(=O)CN3CCC(n4nnc5cc(F)ccc54)CC3)sc2c1 yielded an IC50 of 2.37 µM.
COc1cc(/C=N/NC(=O)c2cccnc2)ccc1OS(=O)(=O)c1ccc(F)cc1 was tested, and the IC50 was 3.17 µM.
With COc1cc(-c2cnc3c(NC=O)cc(-c4cccnc4)cn23)cc(OC)c1OC the IC50 was 24.6 µM (inactive).
COc1ccc(CCNC(=O)c2cc3c(C)nccc3[nH]c2=O)cc1OC gave an IC50 of 7.47 µM.
CCCCCCn1c(C)nc2c(c1=O)c1nc3ccccc3nc1n2/N=C/c1ccco1 gave an IC50 of 4.85 µM.
In the case of CCOC(=O)c1ccccc1OCc1cc(/C=N/NC(=O)c2cccnc2)ccc1OC, the IC50 is reported as > 79 µM (inactive).
In the case of CCn1c(=O)cc(OCC(=O)Nc2ccccc2C#N)c2ccccc21, the IC50 is reported as 11.9 µM (inactive).
For CCOc1cc(-c2cc(-c3ccc(N)cc3)nc(N)c2C#N)ccc1O, the IC50 was 5.99 µM.
For COCCCNC(=O)/C(C#N)=C1\N=C(NC(=O)c2cccs2)c2ccccc21, the IC50 was > 79 µM (inactive).
For CC(C)=NNc1cnnc2ccc([N+](=O)[O-])cc12, the IC50 was 4.85 µM.
COc1cc(NC(=O)c2ccc(-c3cn[nH]c3)c3ccoc23)cc(OC)c1OC was tested, and the IC50 was 3.24 µM.
For Cc1[nH]c2ccccc2c1/C=N/NC(=O)c1cc(-c2cccs2)[nH]n1, the IC50 was 3.62 µM.
In the case of CC(=O)Nc1ccc(C(=O)N/N=C/c2ccccc2OC(=O)c2ccc(Cl)cc2)cc1, the IC50 is reported as 13.6 µM (inactive).
With Cc1ccc(NC(=O)c2cc(-c3cccs3)nc3ccccc23)nc1 the IC50 was 8.28 µM.
With CCOC(=O)C1=C(C)NC(C)=C(C(=O)OCC)C1C(=O)OCC(=O)NC(C)C the IC50 was 12.9 µM (inactive).
In the case of COc1ccccc1CN(C)C(=O)c1cc(-c2cc(OC)c(OC)c(OC)c2)nc2ccccc12, the IC50 is reported as > 79 µM (inactive).
In the case of CC1CN(c2nn3c(=O)c4ccccc4nc3c3ccccc23)CC(C)O1 (stereo not drawn), the IC50 is reported as 32.5 µM (inactive).
COc1ccc(-c2cc(C(=O)NC(C)c3ccccn3)c3ccccc3n2)cc1OC (stereo not drawn) gave an IC50 of 5.39 µM.
CC(C)(C)OC(=O)C[C@H]1C/C=C\C[C@H](CC(=O)N[C@H](CO)Cc2ccccc2)C(=O)N[C@H](Cc2ccccc2)COC1=O was tested, and the IC50 was 6.31 µM.
In the case of CCCN1C(=O)c2cc(C(=O)Nc3cccc(C(C)=O)c3)ccc2C1Nc1cccc(C(C)=O)c1 (stereo not drawn), the IC50 is reported as > 79 µM (inactive).
Work on COc1ccc(-c2oc(=O)c3cc(OC)c(OC)cc3c2C#CCCO)cc1 yielded an IC50 of 6.71 µM.
Cc1nc2c(c(=O)n1CCC1=CCCCC1)c1nc3ccccc3nc1n2/N=C/c1ccccc1 was tested, and the IC50 was 10.5 µM (inactive).
Molecule COc1cc(/C=C(\C#N)c2nc3ccc(C)cc3[nH]2)c([N+](=O)[O-])cc1OC has an IC50 of 9.31 µM.
For COc1ccc(-c2cnc3c(NC=O)cc(-c4cccc(NS(C)(=O)=O)c4)cn23)cc1OC, the IC50 was 5.59 µM.
